# Test results published in PubChem BioAssay (NCI).
#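 96-well plates; 48 h exposure; 5 concentrations. Endpoints by linear interpolation between flanking doses. Not reached: highest tested concentration assigned. GI50 marks 50% less growth. TGI denotes the concentration required for complete inhibition of growth.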
# How the values were obtained:
# Experiment in all cases: NCI anticancer screen, dose series, 48 h
# 786-0 renal = tested on: 786-0 renal
# A498 renal = tested on: A498 renal
# A549 NSCLC = tested on: A549 NSCLC
# ACHN renal = tested on: ACHN renal
# BT-549 breast = tested on: BT-549 breast
# CAKI-1 renal = tested on: CAKI-1 renal
# CCRF-CEM leukemia = tested on: CCRF-CEM leukemia
# COLO 205 colon = tested on: COLO 205 colon
# DU-145 prostate = tested on: DU-145 prostate
# EKVX NSCLC = tested on: EKVX NSCLC
# HCC-2998 colon = tested on: HCC-2998 colon
# HCT-116 colon = tested on: HCT-116 colon
# HCT-15 colon = tested on: HCT-15 colon
# HL-60(TB) leukemia = tested on: HL-60(TB) leukemia
# HOP-62 NSCLC = tested on: HOP-62 NSCLC
# HOP-92 NSCLC = tested on: HOP-92 NSCLC
# HS 578T breast = tested on: HS 578T breast
# HT29 colon = tested on: HT29 colon
# IGROV1 ovarian = tested on: IGROV1 ovarian
# K-562 leukemia = tested on: K-562 leukemia
# KM12 colon = tested on: KM12 colon
# LOX IMVI melanoma = tested on: LOX IMVI melanoma
# M14 melanoma = tested on: M14 melanoma
# MALME-3M melanoma = tested on: MALME-3M melanoma
# MCF7 breast = tested on: MCF7 breast
# MDA-MB-231 breast = tested on: MDA-MB-231 breast
# MDA-MB-435 = tested on: MDA-MB-435
# MOLT-4 leukemia = tested on: MOLT-4 leukemia
# NCI-H226 lung = tested on: NCI-H226 lung
# NCI-H23 lung = tested on: NCI-H23 lung
# NCI-H460 lung = tested on: NCI-H460 lung
# NCI-H522 lung = tested on: NCI-H522 lung
# NCI/ADR-RES ovarian = tested on: NCI/ADR-RES ovarian
# OVCAR-3 ovarian = tested on: OVCAR-3 ovarian
# OVCAR-4 ovarian = tested on: OVCAR-4 ovarian
# OVCAR-5 ovarian = tested on: OVCAR-5 ovarian
# OVCAR-8 ovarian = tested on: OVCAR-8 ovarian
# PC-3 prostate = tested on: PC-3 prostate
# RPMI-8226 leukemia = tested on: RPMI-8226 leukemia
# RXF 393 renal = tested on: RXF 393 renal
# SF-268 CNS = tested on: SF-268 CNS
# SF-295 CNS = tested on: SF-295 CNS
# SF-539 CNS = tested on: SF-539 CNS
# SK-MEL-2 melanoma = tested on: SK-MEL-2 melanoma
# SK-MEL-28 melanoma = tested on: SK-MEL-28 melanoma
# SK-MEL-5 melanoma = tested on: SK-MEL-5 melanoma
# SK-OV-3 ovarian = tested on: SK-OV-3 ovarian
# SN12C renal = tested on: SN12C renal
# SNB-19 CNS = tested on: SNB-19 CNS
# SNB-75 CNS = tested on: SNB-75 CNS
# SR leukemia = tested on: SR leukemia
# SW-620 colon = tested on: SW-620 colon
# T-47D breast = tested on: T-47D breast
# TK-10 renal = tested on: TK-10 renal
# U251 CNS = tested on: U251 CNS
# UACC-257 melanoma = tested on: UACC-257 melanoma
# UACC-62 melanoma = tested on: UACC-62 melanoma
# UO-31 renal = tested on: UO-31 renal
structure (smiles),measurement,setting,value
Cc1noc(C)c1-c1cnc2c(-c3ccc(C(=O)O)cc3)cn([C@@H](C)c3ccccn3)c2c1,GI50,786-0 renal,2.13 µM
same,TGI,786-0 renal,> 100 µM
same,GI50,A498 renal,0.196 µM
same,TGI,A498 renal,1.87 µM
same,GI50,A549 NSCLC,3.25 µM
same,TGI,A549 NSCLC,> 100 µM
same,GI50,ACHN renal,1.38 µM
same,TGI,ACHN renal,> 100 µM
same,GI50,BT-549 breast,11.8 µM
same,TGI,BT-549 breast,> 100 µM
same,GI50,CAKI-1 renal,0.0745 µM
same,TGI,CAKI-1 renal,> 83.6 µM
same,GI50,CCRF-CEM leukemia,2.73 µM
same,TGI,CCRF-CEM leukemia,> 100 µM
same,GI50,COLO 205 colon,0.413 µM
same,TGI,COLO 205 colon,> 100 µM
same,GI50,DU-145 prostate,22.6 µM
same,TGI,DU-145 prostate,> 100 µM
same,GI50,EKVX NSCLC,0.58 µM
same,TGI,EKVX NSCLC,> 100 µM
same,GI50,HCC-2998 colon,0.966 µM
same,TGI,HCC-2998 colon,10.9 µM
same,GI50,HCT-116 colon,1.14 µM
same,TGI,HCT-116 colon,> 100 µM
same,GI50,HCT-15 colon,0.418 µM
same,TGI,HCT-15 colon,> 100 µM
same,GI50,HL-60(TB) leukemia,0.253 µM
same,TGI,HL-60(TB) leukemia,> 100 µM
same,GI50,HOP-62 NSCLC,0.555 µM
same,TGI,HOP-62 NSCLC,> 100 µM
same,GI50,HOP-92 NSCLC,0.212 µM
same,TGI,HOP-92 NSCLC,> 100 µM
same,GI50,HS 578T breast,0.188 µM
same,TGI,HS 578T breast,> 100 µM
same,GI50,HT29 colon,0.386 µM
same,TGI,HT29 colon,> 100 µM
same,GI50,IGROV1 ovarian,0.607 µM
same,TGI,IGROV1 ovarian,> 100 µM
same,GI50,K-562 leukemia,0.964 µM
same,TGI,K-562 leukemia,> 100 µM
same,GI50,KM12 colon,2.73 µM
same,TGI,KM12 colon,> 100 µM
same,GI50,LOX IMVI melanoma,0.315 µM
same,TGI,LOX IMVI melanoma,7.73 µM
same,GI50,M14 melanoma,0.629 µM
same,TGI,M14 melanoma,> 100 µM
same,GI50,MALME-3M melanoma,0.635 µM
same,TGI,MALME-3M melanoma,> 100 µM
same,GI50,MCF7 breast,0.186 µM
same,TGI,MCF7 breast,> 100 µM
same,GI50,MDA-MB-231 breast,0.518 µM
same,TGI,MDA-MB-231 breast,> 100 µM
same,GI50,MDA-MB-435,0.603 µM
same,TGI,MDA-MB-435,> 100 µM
same,GI50,MOLT-4 leukemia,12.6 µM
same,TGI,MOLT-4 leukemia,> 100 µM
same,GI50,NCI-H226 lung,5.02 µM
same,TGI,NCI-H226 lung,> 46.6 µM
same,GI50,NCI-H23 lung,3.32 µM
same,TGI,NCI-H23 lung,> 100 µM
same,GI50,NCI-H460 lung,6.07 µM
same,TGI,NCI-H460 lung,> 100 µM
same,GI50,NCI-H522 lung,0.231 µM
same,TGI,NCI-H522 lung,> 49.7 µM
same,GI50,NCI/ADR-RES ovarian,2.28 µM
same,TGI,NCI/ADR-RES ovarian,> 100 µM
same,GI50,OVCAR-3 ovarian,0.959 µM
same,TGI,OVCAR-3 ovarian,32.1 µM
same,GI50,OVCAR-4 ovarian,0.772 µM
same,TGI,OVCAR-4 ovarian,> 100 µM
same,GI50,OVCAR-5 ovarian,4.22 µM
same,TGI,OVCAR-5 ovarian,> 100 µM
same,GI50,OVCAR-8 ovarian,2.89 µM
same,TGI,OVCAR-8 ovarian,> 100 µM
same,GI50,PC-3 prostate,3.28 µM
same,TGI,PC-3 prostate,> 100 µM
same,GI50,RPMI-8226 leukemia,0.155 µM
same,TGI,RPMI-8226 leukemia,> 100 µM
same,GI50,RXF 393 renal,2.4 µM
same,TGI,RXF 393 renal,34.6 µM
same,GI50,SF-268 CNS,9.04 µM
same,TGI,SF-268 CNS,> 100 µM
same,GI50,SF-295 CNS,3.71 µM
same,TGI,SF-295 CNS,> 100 µM
same,GI50,SF-539 CNS,0.842 µM
same,TGI,SF-539 CNS,> 100 µM
same,GI50,SK-MEL-2 melanoma,7.02 µM
same,TGI,SK-MEL-2 melanoma,> 100 µM
same,GI50,SK-MEL-28 melanoma,5.44 µM
same,TGI,SK-MEL-28 melanoma,> 100 µM
same,GI50,SK-MEL-5 melanoma,0.644 µM
same,TGI,SK-MEL-5 melanoma,4.07 µM
same,GI50,SK-OV-3 ovarian,0.635 µM
same,TGI,SK-OV-3 ovarian,32.5 µM
same,GI50,SN12C renal,2.99 µM
same,TGI,SN12C renal,> 100 µM
same,GI50,SNB-19 CNS,1.58 µM
same,TGI,SNB-19 CNS,> 100 µM
same,GI50,SNB-75 CNS,0.0376 µM
same,TGI,SNB-75 CNS,2.47 µM
same,GI50,SR leukemia,0.838 µM
same,TGI,SR leukemia,> 100 µM
same,GI50,SW-620 colon,15.6 µM
same,TGI,SW-620 colon,> 100 µM
same,GI50,T-47D breast,0.623 µM
same,TGI,T-47D breast,> 100 µM
same,GI50,TK-10 renal,0.405 µM
same,TGI,TK-10 renal,> 100 µM
same,GI50,U251 CNS,3.38 µM
same,TGI,U251 CNS,> 100 µM
same,GI50,UACC-257 melanoma,1.62 µM
same,TGI,UACC-257 melanoma,> 100 µM
same,GI50,UACC-62 melanoma,0.0954 µM
same,TGI,UACC-62 melanoma,20.2 µM
same,GI50,UO-31 renal,0.102 µM
same,TGI,UO-31 renal,> 55 µM
